In US9410958B2, “Alkyne-activated fluorogenic azide compounds and methods of use thereof” (The Regents of the University of California, priority 2014, dated 2016):
“Also recorded” adds a separate entry of the source. Where two headings read alike, the source gives them in different places. Marks after values point to notes of the source that are not given here.

Assays:
[1] = Photophysical properties and fluorescence quantum yields of Si-rhodamines in PBS pH 7.4; type: physicochemical; conditions: for Φfl: cresyl violet in methanol as standard
Description: The fluorescence quantum yields of the purified amino, azido, and triazolyl Si-rhodamines were measured in pH 7.4 phosphate buffered saline (PBS) using cresyl violet in methanol (Φfl=0.54) as a standard (Table 1). […] The best candidate of the four, 8-azidonaphthyl-substituted Si-rhodamine 1, afforded only a 5-fold increase in fluorescence quantum yield as compared with the 29-fold enhancement observed with the corresponding fluorescein.
Fluorescence quantum yields were measured by creating 2 mM stocks of dyes in MeOH. The dyes were then diluted to 20 μM in PBS, then further diluted in PBS to various final concentrations. The absorbance and emission spectra of five different concentrations of dye were measured while keeping maximum absorbance under 0.2. Solutions of probe were excited at 600 nm, and emission was integrated from 600 to 800 nm. Plotting integrated emission vs. absorbance at 600 nm yielded a line, whose slope corresponds to the fluorescence quantum yield. Absolute quantum yields were determined by comparison with the slope of the line measured for cresyl violet in MeOH (Φfl=0.54). The reported quantum yields are the average of three sets of measurements. Absorbance spectra were recorded on a Varian Cary 50 UV-Visible spectrophotometer. Fluorescence spectra were recorded on a Photon Technology International Quanta Master 4 L-format scanning spectrofluorometer equipped with an LPS-220B 75-W xenon lamp and power supply, A-1010B lamp housing with an integrated igniter, switchable 814 photon counting/analog photomultiplier detection unit, and MD5020 motor driver. Measurements were made in 1 cm×0.4 cm quartz cuvettes with a total sample volume of 1 mL.

[2] = test system: CHO K1 cells; assay: No-wash cell surface labeling of SiaNAl residues, CHO K1; type: cell-based
Description: Si-rhodamine 10 was evaluated as a reagent for imaging SiaNAl residues on live cell surfaces. CHO K1 cells were incubated with 50 μM Ac4ManNAl for 3 days, washed, and then incubated with 5 μM 10, 50 μM CuSO4, 300 μM BTTAA, and 1 mM sodium ascorbate. […] Cell-surface glycan labeling was visualized as it occurred in real time (FIG. 14). Background labeling was minimal on control cells treated with N-acetylmannosamine (Ac4ManNAc) (FIG. 13).

[3] = test system: HEK 293T cells; assay: No-wash live cell surface labeling and mitochondrial co-staining, HEK 293T; conditions: HEK 293T
Description: Cells were grown in 8-well Lab-Tek Chambered Coverglass systems in media (HAM-F12 for CHO K1 cells, DMEM for HEK 293T cells) containing 10% fetal bovine serum, penicillin/streptomycin, and either 50 μM Ac4ManNAl or Ac4ManNAc for 3 d at 37° C., as described previously. The cells were then washed with 3×300 μL PBS, then incubated with 100 μL freshly prepared click solution. Click solution comprised of 50 μM CuSO4, 300 μM BTTAA, 2.5 mM sodium ascorbate, and 5 μM azido Si-rhodamine. This was prepared by first adding 0.5 μL 50 mM CuSO4 in H2O and 3 μL 50 mM BTTAA in H2O to 481.5 μL PBS. Next, 12.5 μL freshly prepared 100 mM sodium ascorbate in PBS was added. Finally, 2.5 μL 1 mM azido Si-rhodamine in 4:1 PBS/MeOH was added. After 15 min, the reactions were quenched with the addition of 1 μL of 100 mM bathocuproine disulfonate (BCS) in H2O (final concentration 1 mM). […] For real-time imaging, images were acquired as the labeling progressed without quenching the reaction.
HEK 293T cells were grown in a LabTek 8-well chambered glass slide in DMEM containing fetal bovine serum, penicillin/streptomycin for 3 d at 37° C. The cells were then incubated with 100 nM MitoTracker Green FM and 1 μg/mL Hoechst 33342 in fresh media for 30 min at 37° C., then media removed and the cells incubated with 100 μL PBS containing 5 μM 10. The cells were then directly imaged.
The CalFluors' performance in no-wash cell imaging experiments was evaluated. Using established methods, cell-surface glycoconjugates were metabolically labeled with peracetylated N-pentynoyl mannosamine (Ac4ManNAl), which introduces terminal alkyne groups into sialic acid residues (SiaNAl). HEK 293T cells treated in this fashion were then incubated, without fixation, with a cocktail containing 50 μM CuSO4, 300 μM BTTAA, 5 mM sodium ascorbate and 10 μM CalFluor dye.
Cells were grown with 50 μM Ac4ManNAl or Ac4ManNAc for 3 days, then subjected to click labeling with CalFluor probes. (A) Labeling glycoproteins on live cell surfaces. Cells were treated with 10 μM azide probe, 50 μM CuSO4, 300 μM BTTAA ligand, and 5 mM sodium ascorbate. The reaction was quenched with 1 mM BCS and the cells imaged without further wash steps. (B) Labeling glycoproteins on fixed cells. Cells were fixed with 3% paraformaldehyde, then treated with 10 μM CalFluor probe, 1 mM CuSO4, 100 μM TBTA ligand, and 2 mM sodium ascorbate. 0.1 mg/mL BSA was added to prevent the TBTA from precipitating over the course of the reaction.

[4] = test system: wild-type L. monocytogenes; assay: D-alanine competition experiment; conditions: 5 mM cyclooctyne amino acid, 0 or 20 mM D-alanine
Description: The bacteria were incubated with 5 mM cyclooctyne amino acid, in the presence of either 0 or 20 mM D-alanine, and labeled following the general procedure.
Bacteria were grown to an optical density (OD) of 0.4 in their respective media (7H9 for M. smegmatis, LB for C. glutamicum, BHI for L. monocytogenes) at 37° C. (M. smegmatis and L. monocytogenes) or 30° C. (C. glutamicum). Then, 5 mM D-amino acid was added (from a 1 M stock in H2O, 1 eq. NaOH was added to help solubilize compounds 12, 13, and 14) and the cells grown for one doubling time. The bacteria were then added to a 96-well V-bottom plate at 200 μL/well and pelleted by centrifugation at 3500 rpm for 3 min. The supernatant was removed and the cells resuspended in 200 μL PBS and pelleted again. This wash process was repeated twice more. The cells were then incubated with 100 μL of 20 μM azido-PEG3-carboxyrhodamine 110 (Click Chemistry Tools) in PBS (made by diluting a 1 mM stock in 9:1 PBS/DMSO) and placed in a 37° C. shaker for 1 h. Alternatively, for alkDala, labeling was performed by incubation with 100 μL of 20 μM azido-PEG3-carboxyrhodamine 110, 128 μM TBTA, 1 mM CuSO4, and 1.2 mM sodium ascorbate in PBS in a 37° C. shaker for 1 h. The cells were washed three times, then fixed with 4% paraformaldehyde for 10 min at rt. The cells were washed another three times, then studied by flow cytometry and microscopy.

[5] = data from Shieh et al. 2014; cited from earlier work
[6] = increase (↑), triazole relative to the azide
[7] = decrease (↓), amine relative to the azide

SMILES | λabs [1] [nm] | λem [1] [nm] | Φfl [1] | Change in Φfl [1, 6] | Change in Φfl [1, 7] | other results
CN(C)c1ccc2c(c1)[Si](C)(C)C1=CC(=[N+](C)C)C=CC1=C2c1cc(-n2cc(CCC(=O)NCCO)nn2)ccc1N1CCOCC1 [Compound 3-triazole] | 663 | 676 | 0.0015 | 1.1-fold ↑ | – | –
COc1ccc(-n2cc(CCC(=O)NCCO)nn2)cc1C1=C2C=CC(=[N+](C)C)C=C2[Si](C)(C)c2cc(N(C)C)ccc21 [Compound 2-triazole] | 655 | 669 | 0.19 | 2.3-fold ↑ | – | –
CN(C)c1ccc2c(c1)[Si](C)(C)C1=CC(=[N+](C)C)C=CC1=C2c1cc(-n2cc(CCC(=O)NCCO)nn2)cc2[nH]ccc12 [Compound 4-triazole] | 654 | 668 | 0.0088 | 1.8-fold ↑ | – | –
COc1cc(N=[N+]=[N-])cc(C2=C3C=CC(=[N+](C)C)C=C3[Si](C)(C)c3cc(N(C)C)ccc32)c1OC [Compound 6-N3] | 654 | 669 | 0.039 | – | – | –
CN(C)c1ccc2c(c1)[Si](C)(C)C1=CC(=[N+](C)C)C=CC1=C2c1cc(N)ccc1N1CCOCC1 [Compound 3-NH2] | 650 | 672 | 0.00096 | – | 1.4-fold ↓ | –
CN(C)c1ccc2c(c1)[Si](C)(C)C1=CC(=[N+](C)C)C=CC1=C2c1cc(N)cc2c1OCCO2 [Compound 5-NH2] | 653 | 667 | 0.00093 | – | 21-fold ↓ | –
COCCOCCOCCOc1cc(OCCOCCOCCOC)c(C2=C3C=CC(=[N+](C)C)C=C3[Si](C)(C)c3cc(N(C)C)ccc32)cc1N=[N+]=[N-] [Compound 10] | – | – | – | – | – | cell-surface labeling ([2]; Ac4ManNAl-treated CHO K1, no wash, 15 min): robust cell-surface labeling; background labeling ([2]; CHO K1, control or unwanted labeling): minimal; background, intracellular or mitochondrial labeling [3]: mitochondrial staining; also recorded: punctate fluorescence appeared within the cells almost immediately
NC(CNC(=O)OC1C#CCCCCC1)C(=O)O (stereo not drawn) [Compound 12] | – | – | – | – | – | effect of excess D-alanine on labeling [4]: excess D-alanine decreases the fluorescence intensity
COc1cc(C)c(C2=C3C=CC(=[N+](C)C)C=C3[Si](C)(C)c3cc(N(C)C)ccc32)cc1N=[N+]=[N-] [Compound 7-N3] | 650 | 666 | 0.066 | – | – | –
COc1cc(-n2cc(CCC(=O)NCCO)nn2)cc(C2=C3C=CC(=[N+](C)C)C=C3[Si](C)(C)c3cc(N(C)C)ccc32)c1OC [Compound 6-triazole] | 656 | 670 | 0.18 | 4.6-fold ↑ | – | –
COc1cc(OC)c(-n2cc(CCC(=O)NCCO)nn2)cc1C1=C2C=CC(=[N+](C)C)C=C2[Si](C)(C)c2cc(N(C)C)ccc21 [2 triazole] | – | – | – | – | – | Enhancement [5]: 48x^a; Φfl [5]: 0.20^a; λem [5]: 668 nm^a; λmax [5]: 665 nm^a
COc1cc(OC)c(-n2cc(CCC(=O)NCCO)nn2)cc1C1=C2C=CC(=[N+](C)C)C=C2[Si](C)(C)c2cc(N(C)C)ccc21 [Compound 9-triazole] | 655 | 668 | 0.20 | 48-fold ↑ | – | –
CN(C)c1ccc2c(c1)[Si](C)(C)C1=CC(=[N+](C)C)C=CC1=C2c1cc(N=[N+]=[N-])ccc1N1CCOCC1 [Compound 3-N3] | 656 | 667 | 0.0014 | – | – | –
CN(C)c1ccc2c(c1)[Si](C)(C)C1=CC(=[N+](C)C)C=CC1=C2c1ccc(N)c2ccccc12 [Compound 1-NH2] | 653 | 669 | 0.0016 | – | 24-fold ↓ | –
COc1cc(N=[N+]=[N-])c(OC)c(C2=C3C=CC(=[N+](C)C)C=C3[Si](C)(C)c3cc(N(C)C)ccc32)c1 [Compound 8-N3] | 655 | 669 | 0.051 | – | – | –
COc1cc(N)c(OC)c(C2=C3C=CC(=[N+](C)C)C=C3[Si](C)(C)c3cc(N(C)C)ccc32)c1 [Compound 8-NH2] | 654 | 672 | 0.0012 | – | 41-fold ↓ | –
COc1ccc(N=[N+]=[N-])cc1C1=C2C=CC(=[N+](C)C)C=C2[Si](C)(C)c2cc(N(C)C)ccc21 [Compound 2-N3] | 653 | 667 | 0.081 | – | – | –
COc1ccc(N)cc1C1=C2C=CC(=[N+](C)C)C=C2[Si](C)(C)c2cc(N(C)C)ccc21 [Compound 2-NH2] | 650 | 669 | 0.0025 | – | 32-fold ↓ | –
CN(C)c1ccc2c(c1)[Si](C)(C)C1=CC(=[N+](C)C)C=CC1=C2c1ccc(-n2cc(CCC(=O)NCCO)nn2)c2ccccc12 [Compound 1-triazole] | 656 | 670 | 0.19 | 5.0-fold ↑ | – | –
CN(C)c1ccc2c(c1)[Si](C)(C)C1=CC(=[N+](C)C)C=CC1=C2c1cc(N)cc2[nH]ccc12 [Compound 4-NH2] | 650 | 673 | 0.00088 | – | 5.5-fold ↓ | –
COc1cc(C)c(C2=C3C=CC(=[N+](C)C)C=C3[Si](C)(C)c3cc(N(C)C)ccc32)cc1N [Compound 7-NH2] | 648 | 669 | 0.0015 | – | 45-fold ↓ | –
COc1cc(N)cc(C2=C3C=CC(=[N+](C)C)C=C3[Si](C)(C)c3cc(N(C)C)ccc32)c1OC [Compound 6-NH2] | 652 | 665 | 0.00067 | – | 58-fold ↓ | –
NC(CNC(=O)OC[C@H]1[C@@H]2CCC#CCC[C@@H]21)C(=O)O (stereo partly drawn) [Compound 13] | – | – | – | – | – | effect of excess D-alanine on labeling [4]: excess D-alanine decreases the fluorescence intensity
CN(C)c1ccc2c(c1)[Si](C)(C)C1=CC(=[N+](C)C)C=CC1=C2c1cc(-n2cc(CCC(=O)NCCO)nn2)cc2c1OCCO2 [Compound 5-triazole] | 656 | 668 | 0.18 | 9.5-fold ↑ | – | –
COc1cc(C2=C3C=CC(=[N+](C)C)C=C3[Si](C)(C)c3cc(N(C)C)ccc32)c(OC)c(-n2cc(CCC(=O)NCCO)nn2)c1 [Compound 8-triazole] | 657 | 671 | 0.16 | 3.2-fold ↑ | – | –
COc1cc(C)c(C2=C3C=CC(=[N+](C)C)C=C3[Si](C)(C)c3cc(N(C)C)ccc32)cc1-n1cc(CCC(=O)NCCO)nn1 [Compound 7-triazole] | 652 | 666 | 0.25 | 3.7-fold ↑ | – | –
CN(C)c1ccc2c(c1)[Si](C)(C)C1=CC(=[N+](C)C)C=CC1=C2c1cc(N=[N+]=[N-])cc2c1OCCO2 [Compound 5-N3] | 655 | 668 | 0.019 | – | – | –
COc1cc(OC)c(C2=C3C=CC(=[N+](C)C)C=C3[Si](C)(C)c3cc(N(C)C)ccc32)cc1N [Compound 9-NH2] | 650 | 664 | 0.0014 | – | 3.0-fold ↓ | –
CN(C)c1ccc2c(c1)[Si](C)(C)C1=CC(=[N+](C)C)C=CC1=C2c1cc(N=[N+]=[N-])cc2[nH]ccc12 [Compound 4-N3] | 660 | 669 | 0.0048 | – | – | –
